Source: US20070059364A1, “Active substance combination comprising a compound with npy receptor affinity and a compound with 5-ht6 receptor affinity” (Laboratorios Del Dr. Esteve S.A., priority 2003, published 2007)
Counter-ions that a name gives are not always drawn.

What was measured:
Neuropeptide Y2 receptor = biological target: T1, Neuropeptide Y2 receptor (Rattus norvegicus, UniProt Q9ERC0); assay: Binding to Neuropeptide Y2, Method (III), [125I]-PYY3-36, rat hypoccampus membranes; details: [125I]-PYY(3-36)
T1 construct: from tissue; host or cells: rat hippocampus membranes (male Wistar rats)
T1 sequence (Q9ERC0 1-381): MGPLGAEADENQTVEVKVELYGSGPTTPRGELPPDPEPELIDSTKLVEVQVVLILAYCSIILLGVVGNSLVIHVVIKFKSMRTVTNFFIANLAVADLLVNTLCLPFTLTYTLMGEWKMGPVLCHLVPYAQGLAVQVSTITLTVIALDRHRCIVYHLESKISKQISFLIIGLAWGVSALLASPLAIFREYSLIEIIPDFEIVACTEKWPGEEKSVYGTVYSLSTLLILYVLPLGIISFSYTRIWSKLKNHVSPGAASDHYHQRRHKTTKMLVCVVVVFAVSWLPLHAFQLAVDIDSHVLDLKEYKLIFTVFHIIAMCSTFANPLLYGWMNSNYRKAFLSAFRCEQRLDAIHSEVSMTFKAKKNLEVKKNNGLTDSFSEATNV
Experimental: Binding to Neuropeptide Y2
(§1) Male Wistar rats are sacrificed by decapitation, their brains are rapidly removed and the hypoccampus is dissected. Homogenization is performed in cold conditions in the buffer: 120 mM NaCl, 4.7 mM KCl, 2.2 mM CaCl2, 1.2 mM KH2PO4, 1.2 mM MgSO4, 25 mM NaHCO3, 5.5 mM glucose, pH 7.4, by means of a Ultra-Turrax homogenizer for 15 seconds at 13,500 rpm. The ratio between fresh tissue weight and buffer volume is of ten times. The membrane is centrifuged for 10 min at 48,000 g. The supernatant is discarded and the pellet is washed, resuspended and recentrifuged two more times. The final membrane resuspension is performed in the buffer: 120 mM NaCl, 4.7 mM KCl, 2.2 mM CaCl2, 1.2 mM KH2PO4, 1.2 mM MgSO4, 25 mM NaHCO3, 5.5 mM glucose, 0.1% BSA, 0.05% bacitracin, pH 7.4, at a 90 ml/g ratio of fresh issue. […] Incubation volume: 500 μl. […] The filters are cold-washed three times with three milliliters of the same buffer used in homogenization. […] Non-specific binding is determined in the presence of 1 μM of pNPY (Neuropeptide Y of porcine origin). The assays are performed in triplicate.

rat Y5 receptor = biological target: T2, rat Y5 receptor (Rattus norvegicus, UniProt Q63634); assay: Neuropeptide Y5 receptor binding, Method (II), [125I]-PYY, C6 cells transfected with rat Y5 receptor; details: Y5 rat recombinant receptor, cell C6
T2 construct: expressed in transfected cells; host or cells: C6 cells
T2 sequence (Q63634 1-445): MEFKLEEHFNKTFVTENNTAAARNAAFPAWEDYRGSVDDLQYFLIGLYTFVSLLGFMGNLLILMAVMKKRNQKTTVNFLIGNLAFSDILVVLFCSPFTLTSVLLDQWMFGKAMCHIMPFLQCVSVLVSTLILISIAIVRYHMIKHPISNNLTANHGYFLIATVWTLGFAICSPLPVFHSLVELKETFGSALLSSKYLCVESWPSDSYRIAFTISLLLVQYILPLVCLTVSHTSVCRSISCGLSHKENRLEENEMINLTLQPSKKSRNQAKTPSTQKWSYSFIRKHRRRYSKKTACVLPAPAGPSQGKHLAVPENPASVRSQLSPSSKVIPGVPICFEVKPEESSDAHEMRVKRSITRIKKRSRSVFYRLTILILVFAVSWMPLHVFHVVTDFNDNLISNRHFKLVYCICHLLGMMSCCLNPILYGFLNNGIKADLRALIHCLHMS
Experimental: Neuropeptide Y5 Receptor Binding Studies:
The experimental protocol follows the method described by Y. Hu, B. T. Bloomquist et al. in Y. Hu, B. T. Bloomquist et al., The Journal of Biological Chemistry, 1996, 271, 26315-26319 with modifications. Cells C6 were transfected with the rat Y5 receptor. The cells were grown under standard culture conditions in 150 cm^2 dishes and they were harvested using a rubber scraper and 10 ml PBS. The cells from five dishes were collected and centrifuged 2.500 g for 5 min. The pellet was washed by resuspending in 3 ml buffer (Tris-HCl 10 mM, pH 7.4), homogenized using a Potter S homogenizer, 10 strokes at 600 rpm and centrifuged in cold conditions at 48.000 g for 20 min (4° C.). The resulting pellet was resuspended in cold 8 ml membrane buffer (Tris-HCl 25 mM, NaCl 120 mM, KCl 5 mM, KH2PO4 1, 2 mM, CaCl2 2, 5 mM, MgSO4 1, 2 mM, BSA 0.15 mg/ml, Bacitracine 0.5 mg/ml, pH 7, 4) and rehomogenized using the Potter S, 10 strokes at 600 rpm. The protein concentration of the used membrane in the incubation was approximately 40 μg/ml. The radioligand is [^125I]-PYY in a concentration of 100 pM. The incubation volume is 200 μl. […] Non-specific binding is determined in the presence of 1 μM of NPY. […]

[1] = biological target: T3, recombinant human 5HT6 receptor (Homo sapiens, UniProt P50406); assay: Binding to the 5HT6 serotonin receptor, [3H]-LSD, HEK-293 cell membranes
T3 construct: purchased Receptor Biology; host or cells: HEK-293 cell membranes
T3 sequence (P50406 whole entry): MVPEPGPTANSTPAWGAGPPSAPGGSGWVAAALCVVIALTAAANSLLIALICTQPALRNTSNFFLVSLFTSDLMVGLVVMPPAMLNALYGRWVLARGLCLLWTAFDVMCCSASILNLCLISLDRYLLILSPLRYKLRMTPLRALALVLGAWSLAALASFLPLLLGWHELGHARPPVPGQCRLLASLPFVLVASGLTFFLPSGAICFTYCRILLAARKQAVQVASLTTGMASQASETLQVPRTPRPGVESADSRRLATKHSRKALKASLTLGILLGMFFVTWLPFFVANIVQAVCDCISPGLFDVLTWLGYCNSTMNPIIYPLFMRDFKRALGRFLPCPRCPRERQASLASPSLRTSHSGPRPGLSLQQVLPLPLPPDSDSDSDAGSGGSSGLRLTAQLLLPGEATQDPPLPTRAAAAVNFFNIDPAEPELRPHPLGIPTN
Experimental: Binding to the 5HT6 Serotonin Receptor
The respective part of the literature descriptions is incorporated here by reference and form part of the disclosure. […] The assays are carried out in triplicate.

Neuropeptide Y5 receptor = biological target: T4, Neuropeptide Y5 receptor (Rattus norvegicus, UniProt Q63634); assay: Neuropeptide Y5 receptor binding, Method (I), [125I]-PYY3-36 with BIBP 3226, rat cortex membranes; details: [125I]-PYY(3-36), BIBP 3226 sat.
T4 construct: from tissue; host or cells: rat brain cortex membranes (male Wistar rats)
T4 sequence (Q63634 1-445): T2 sequence (Q63634 1-445)
Experimental: as §1, with “the cortex” for “the hypoccampus”, “of twenty” for “of ten”, “recentrifuged three” for “recentrifuged two”, “times.” for “times. The final membrane resuspension is performed in the buffer: 120 mM NaCl, 4.7 mM KCl, 2.2 mM CaCl2, 1.2 mM KH2PO4, 1.2 mM MgSO4, 25 mM NaHCO3, 5.5 mM glucose, 0.1% BSA, 0.05% bacitracin, pH 7.4, at a 90 ml/g ratio of fresh issue.”, “with two” for “with three”

Row | SMILES | melting point | also measured
1 | Cl.O=C(CN1CCC(N2C(=O)OCc3ccccc32)CC1)Nc1ccc2c(c1)-c1ccccc1C2=O [Example 3a, 2-[4-(2-oxo-4H-benzo[d][1,3]oxazin-1-yl)-piperidin-1-yl]-N-(9-oxo-9H-fluoren-3-yl)-acetamide hydrochloride] | > 275 °C | Ki (Neuropeptide Y2 receptor): > 1 µM
2 | O=C(CN1CCC(N2C(=O)OCc3cc(F)ccc32)CC1)Nc1ccc2ncccc2c1 [Example 111a, 2-[4-(6-Fluoro-2-oxo-4H-benzo[d][1,3]oxazin-1-yl)-piperidin-1-yl]-N-quinolin-6-yl-acetamide] | – | IC50 (rat Y5 receptor): 0.0077 µM
3 | CN(C)CCn1ccc2ccc(NS(=O)(=O)c3ccc(-c4ccccc4)cc3)cc21 [Example 5f, N-[1-(2-Dimethylaminoethyl)-1H-indol-6-yl]-4-phenylbenzenesulfonamide] | – | Ki ([1]; compounds of general formula (If), Table 1f): 0.129 µM
4 | Cc1ccc2c(c1)COC(=O)N2C1CCN(CC(=O)Nc2ccc3c(c2)-c2ccccc2C3=O)CC1.Cl [Example 20a, 2-[4-(6-methyl-2-oxo-4H-benzo[d][1,3]oxazin-1-yl)-piperidin-1-yl]-N-(9-oxo-9H-fluoren-3-yl)-acetamide hydrochloride] | 250 to 252 °C | Ki (Neuropeptide Y2 receptor): > 1 µM
5 | CN(C)CCn1ccc2c(NS(=O)(=O)CCc3cccc4ccccc34)cccc21 [Example 5d, N-[1-(2-dimethylaminoethyl)-1H-indole-4-yl]-2-(naphthalene-1-yl)-ethanesulfonamide] | 47 to 54 °C | inhibition at 1 µM ([1]; 10^−6 M, compounds of general formula (Id), Table 1d): 98.1%
6 | O=C(CN1CCC(N2C(=O)OCc3ccccc32)CC1)Nc1ccc2c(c1)CCCC2=O [Example 6a, 2-[4-(2-oxo-4H-benzo[d][1,3]oxazin-1-ylipiperidin-1-yl]-N-(5-oxo-5,6,7,8-tetrahidro-naphthalene-2-yl)-acetamide hydrochloride] | – | Ki (Neuropeptide Y2 receptor): > 1 µM; Ki (Neuropeptide Y5 receptor): 0.0184 µM
7 | CCN(CC)CCCc1c[nH]c2ccc(NS(=O)(=O)c3sc4ccc(Cl)cc4c3C)cc12 [Example 43c, N-[3-(3-diethylaminopropyl)-1H-indol-5-yl]-5-chloro-3-methylbenzo[b]thiophene-2-sulphonamide] | 156 to 158 °C | –
8 | CN(C)CCn1ccc2c(NS(=O)(=O)c3c(Cl)nc4sccn34)cccc21 [Example 8d, 6-chloro-N-[1-(2-dimethylaminoethyl)-1H-indol-4-yl]-imidazo[2,1-b]thiazole-5-sulfonamide] | 95 to 100 °C | –
9 | Cc1cccc2c1N(C1CCN(CC(=O)Nc3ccc4c(c3)-c3ccccc3C4=O)CC1)C(=O)OC2.Cl | 233 to 236 °C | –
10 | CN1CCC(c2c[nH]c3ccc(NS(=O)(=O)c4ccc(Cl)s4)cc23)CC1 [Example 14c, N-[3-(1-methylpiperidin-4-yl)-1H-indol-5-yl]-5-chlorothiophene-2-sulphonamide] | 284 °C (dec.) | –
11 | Cc1cccc2c1N(C1CCN(CC(=O)Nc3ccc(C(=O)c4ccccc4)cc3)CC1)C(=O)OC2.Cl | 217 °C | –
12 | O=S(=O)(Nc1ccc2c(ccn2CCCN2CCCCC2)c1)c1cccc2ccccc12 [Example 45e, N-(1-(3-(piperidin-1-yl)propyl)-1H-indol-5-yl)naphthalene-1-sulfonamide] | 105 to 107 °C | –
13 | Cc1ccc2c(c1)COC(=O)N2C1CCN(CC(=O)Nc2ccccc2C(F)(F)F)CC1 | 169 to 173 °C | –
14 | CN(C)CCn1ccc2cc(NS(=O)(=O)c3cccc([N+](=O)[O-])c3)ccc21 [Example 14e, N-[1-(2-dimethylaminoethyl)-1H-indole-5-yl]-3-nitrobenzenesulfonamide] | 138 to 140 °C | –
